In US20230116114A1, “COMPOUNDS AND COMPOSITIONS FOR TREATING CNS DISORDERS” (Blue Oak Pharmaceuticals, Inc., priority 2020, published 2023):
Where a name gives a salt, the structure may show the parent alone.

Test system: mice
Assay: SmartCube in vivo neuropharmacological behavioral assay
Conditions: for minimal effective dose: Mus musculus, ip, 0.25 h, dose having 50% or more total activity in SmartCube, i.p., read-out: MED (minimal effective dose); for AD: antidepressant (percent probability) / AG: analgesic (percent probability) / AP: antipsychotic (percent probability) / AX: anxiolytic (percent probability) / CE: cognitive enhancer (percent probability) / HA: hallucinogenic (percent probability) / MS: mood stabilizer (percent probability) / PS (percent probability) / SD: sedative hypnotic (percent probability) / SE: side effects (percent probability) / UN: uncharacterized CNS activity (percent probability) / XG: anxiogenic (percent probability): SmartCube, i.p. 15 min before test, result at the MED
Method: The compounds were evaluated for their CNS related properties (e.g., the treatment, prevention or diagnosis of CNS or CNS-related disorders and/or amelioration of symptoms) using neuropharmacological screening methods described in S. L. Roberts et al., Front. Neurosci. 2011, 5:103 (hereinafter referred to as “Roberts,” the contents of which are incorporated herein by reference in their entirety).
According to Roberts, intact systems are useful in detecting improvement in disease-relevant endpoints, because psychiatric diseases generally result from disorders of cell-cell communication or circuitry. The endpoints are typically behavioral in nature, often requiring human observation and interpretation. In order to test multiple compounds for behavioral effects relevant to neurological and psychiatric diseases and disorders, PsychoGenics, Inc. (Paramus, N.J. “PGI”) developed SmartCube®, an automated system in which behaviors of compound-treated mice are captured by digital video and analyzed with computer algorithms to facilitate testing of multiple compounds for behavioral effects relevant to psychiatric disease. (D. Brunner et al., Drug Discov. Today 2002, 7:S107-S112; Alexandrov et al., Eur. J. Pharmacol. 2015, 753:127-134; the contents of each of which are incorporated herein by reference in their entirety).
The SmartCube® system is described in Example 2.2 of U.S. Pat. No. 9,758,529 and Example 289 of WIPO Publication No. WO2018/023070, the contents of each of which are incorporated herein by reference in their entirety.
According to the present disclosure, compounds identified may be evaluated using the SmartCube® system. The results of such analysis correlate certain patterns or combinations of behaviors to CNS effects along a percent probability scale of 0-100 where zero (0) reflects the limit of quantitation (LOQ).
The compounds of the present disclosure were evaluated for their CNS related properties (e.g., the treatment, prevention or diagnosis of CNS or CNS-related disorders and/or amelioration of symptoms) using neuropharmacological screening methods described in S. L. Roberts et al., Front. Neurosci. 2011, 5:103 (hereinafter referred to as “Roberts,” the contents of which are incorporated herein by reference in their entirety).
The SmartCube® system described herein was utilized to compare the behavioral signature of a test compound to a database of behavioral signatures obtained using a large set of diverse reference compounds (including but not limited to antipsychotics, anxiolytics, antidepressants and bipolar disorder medicine), thereby predicting the neuropharmacological effects of a test compound by similarity to major classes of compounds. It produces an activity signature indicating the probability that the activity of the test compound at the administered dose matches a given class of neuropharmacological agents. The test compound is simultaneously compared against multiple classes of agents; thus, a separate probability is generated for each behavioral effect measured (such as but not limited to anxiolytic activity and analgesic activity).
The compounds of the present disclosure were dissolved in a mixture of Pharmasolve™ (N-methyl-2-pyrrolidone (NMP)) and were injected i.p. 15 min. before the behavioral test. For each compound, injections were administered at different dose levels (e.g., 0.3, 1, 3, 10 and 30 mg per kg (mpk)). A compound's minimal effective dose (MED; see Table 3) is a measure of the compound's potency. The MED was defined as the dose (in mpk) having 50% or more total activity in SmartCube®. For each behavioral effect measured, results at the MED are presented. CNS activities of the compounds were recorded (see Table 2). In Table 1, a key to the percent probabilities (probability ×100) for each behavioral effect (“X”) are defined provided, where LOQ is the limit of quantification.

SMILES | minimal effective dose | AD: antidepressant (percent probability) | AG: analgesic (percent probability) | AP: antipsychotic (percent probability) | AX: anxiolytic (percent probability) | CE: cognitive enhancer (percent probability) | HA: hallucinogenic (percent probability) | MS: mood stabilizer (percent probability) | PS (percent probability) | SD: sedative hypnotic (percent probability) | SE: side effects (percent probability) | UN: uncharacterized CNS activity (percent probability) | XG: anxiogenic (percent probability)
c1ccc2c(c1)CC(N1C3CCCC1c1ccccc13)C2 [Compound 11, 12-(2,3-Dihydro-1H-inden-2-yl)-12-azatricyclo[6.3.1.0^2,7]dodeca-2,4,6-triene hydrochloride] | 10 to 30 mg/kg | + (LOQ ≤ X < 5%) | ++ (5% ≤ X < 25%) | + (LOQ ≤ X < 5%) | ++ (5% ≤ X < 25%) | ++ (5% ≤ X < 25%) | + (LOQ ≤ X < 5%) | + (LOQ ≤ X < 5%) | + (LOQ ≤ X < 5%) | + (LOQ ≤ X < 5%) | + (LOQ ≤ X < 5%) | +++ (25% ≤ X < 50%) | + (LOQ ≤ X < 5%)
CCC(C)N1C2CCCC1c1ccccc12 (centres unmarked) [Compound 12, 12-(Butan-2-yl)-12-azatricyclo[6.3.1.0^2,7]dodeca-2,4,6-triene] | 1 to 10 mg/kg | ++ (5% ≤ X < 25%) | + (LOQ ≤ X < 5%) | + (LOQ ≤ X < 5%) | ++ (5% ≤ X < 25%) | + (LOQ ≤ X < 5%) | + (LOQ ≤ X < 5%) | + (LOQ ≤ X < 5%) | + (LOQ ≤ X < 5%) | + (LOQ ≤ X < 5%) | + (LOQ ≤ X < 5%) | +++ (25% ≤ X < 50%) | + (LOQ ≤ X < 5%)
c1ccc2c(c1)C1CCCC2N1C1CCCCC1 [Compound 13, 12-Cyclohexyl-12-azatricyclo[6.3.1.0^2,7]dodeca-2,4,6-triene hydrochloride] | 10 to 30 mg/kg | +++ (25% ≤ X < 50%) | + (LOQ ≤ X < 5%) | + (LOQ ≤ X < 5%) | ++ (5% ≤ X < 25%) | + (LOQ ≤ X < 5%) | + (LOQ ≤ X < 5%) | + (LOQ ≤ X < 5%) | ++ (5% ≤ X < 25%) | + (LOQ ≤ X < 5%) | + (LOQ ≤ X < 5%) | + (LOQ ≤ X < 5%) | + (LOQ ≤ X < 5%)
FCC(CF)N1C2CCCC1c1ccccc12 [Compound 14, 12-(1,3-Difluoropropan-2-yl)-12-azatricyclo[6.3.1.0^20.7]dodeca-2,4,6-triene hydrochloride] | 10 to 30 mg/kg | ++ (5% ≤ X < 25%) | +++ (25% ≤ X < 50%) | + (LOQ ≤ X < 5%) | ++ (5% ≤ X < 25%) | + (LOQ ≤ X < 5%) | + (LOQ ≤ X < 5%) | + (LOQ ≤ X < 5%) | + (LOQ ≤ X < 5%) | + (LOQ ≤ X < 5%) | + (LOQ ≤ X < 5%) | + (LOQ ≤ X < 5%) | + (LOQ ≤ X < 5%)
c1ccc2c(c1)C1CCCC2N1C1CC1 [Compound 15, 12-Cyclopropyl-12-azatricyclo[6.3.1.0^20.7]dodeca-2,4,6-triene hydrochloride] | 10 to 30 mg/kg | ++++ (50% ≤ X < 100%) | ++ (5% ≤ X < 25%) | + (LOQ ≤ X < 5%) | ++ (5% ≤ X < 25%) | + (LOQ ≤ X < 5%) | + (LOQ ≤ X < 5%) | + (LOQ ≤ X < 5%) | ++ (5% ≤ X < 25%) | + (LOQ ≤ X < 5%) | + (LOQ ≤ X < 5%) | + (LOQ ≤ X < 5%) | ++ (5% ≤ X < 25%)
CCCC(C)N1C2CCCC1c1ccccc12 (centres unmarked) [Compound 16, 12-(Pentan-2-yl)-12-azatricyclo[6.3.1.0^20.7]dodeca-2,4,6-triene hydrochloride] | 10 to 30 mg/kg | +++ (25% ≤ X < 50%) | ++ (5% ≤ X < 25%) | + (LOQ ≤ X < 5%) | ++ (5% ≤ X < 25%) | + (LOQ ≤ X < 5%) | ++ (5% ≤ X < 25%) | + (LOQ ≤ X < 5%) | + (LOQ ≤ X < 5%) | + (LOQ ≤ X < 5%) | + (LOQ ≤ X < 5%) | ++ (5% ≤ X < 25%) | + (LOQ ≤ X < 5%)
CCC(CC)N1C2CCCC1c1ccccc12 [Compound 17, 12-(Pentan-3-yl)-12-azatricyclo[6.3.1.0^2,7]dodeca-2,4,6-trienehydrochloride] | 10 to 30 mg/kg | ++ (5% ≤ X < 25%) | + (LOQ ≤ X < 5%) | + (LOQ ≤ X < 5%) | ++ (5% ≤ X < 25%) | + (LOQ ≤ X < 5%) | + (LOQ ≤ X < 5%) | + (LOQ ≤ X < 5%) | ++++ (50% ≤ X < 100%) | + (LOQ ≤ X < 5%) | + (LOQ ≤ X < 5%) | + (LOQ ≤ X < 5%) | + (LOQ ≤ X < 5%)
COCC(C)N1C2CCCC1c1ccccc12 (centres unmarked) [Compound 18, 12-(1-Methoxypropan-2-yl)-12-azatricyclo[6.3.1.0^2,7]dodeca-2,4,6-triene] | 10 to 30 mg/kg | ++++ (50% ≤ X < 100%) | + (LOQ ≤ X < 5%) | + (LOQ ≤ X < 5%) | ++ (5% ≤ X < 25%) | + (LOQ ≤ X < 5%) | + (LOQ ≤ X < 5%) | + (LOQ ≤ X < 5%) | + (LOQ ≤ X < 5%) | + (LOQ ≤ X < 5%) | + (LOQ ≤ X < 5%) | + (LOQ ≤ X < 5%) | + (LOQ ≤ X < 5%)
